This is an account of results in patent publication US20260327244A1, “PYRIDO[4,3-D]PYRIMIDINE COMPOUNDS” (Pfizer Inc., priority 2022, published 2026).

In test [1] the target is G12D KRAS (aa1-185) (Homo sapiens, UniProt P01116, G12D). The test can be described thus: biochemical.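 Also: surface plasmon resonance at 10 °C, KRAS captured on a streptavidin chip in GDP-containing buffer, compound dilution series injected, blank streptavidin surface as reference.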
Description: (§1) SPR assay was used to measure the kinetic binding constant (KD) of Examples of the present invention.
(§2) The binding affinity and kinetics of Examples of the present invention were measured by Surface Plasmon Resonance (SPR) using Biacore 8K or 8K+ (Cytiva, Marlborough, MA) instruments. Recombinant, C-terminal site-specific biotinylated, wild-type (WT) KRAS (aa1-185), G12D KRAS (aa1-185), G12C KRAS (aa2-184), G12V KRAS (aa2-184), WT HRAS (aa2-184) and WT NRAS (aa2-185) proteins purified in presence of 1 μM GDP were used in these experiments. Binding measurements were performed parallelly in sets of either WT/G12D/G12C/G12V KRAS or WT K/H/N RAS proteins.
(§3) Biacore instrument was desorbed and docked with a Series S Sensor Chip SA. The proteins were diluted to 50 μg/mL with the assay buffer (50 mM HEPES, 150 mM NaCl, 10 μM GDP, 5 mM MgCl2, 0.5 mM TCEP, 5% glycerol, 0.02% Tween-20, 2% DMSO, pH 7.2) and immobilized at a flow rate of 3 μL/min at 10° C. with a contact time of 15 min. to capture ~3000-4000 RUs of proteins on the surface. The functionalized surface was then equilibrated with assay buffer for approximately 1 hour. Un-functionalized SA surfaces with no immobilized protein served as reference for binding kinetic analysis. Compound binding kinetics were measured in either multi-cycle or single-cycle kinetic format.
(§4) A 2-fold, 10-point serial dilution of test compounds was set-up in a 96-well microplate (Greiner; Cat #650101) with a top concentration of either 10 μM or 100 μM. Binding kinetics was measured at 10° C. by injecting serial dilution of compounds onto both reference and RAS immobilized channels at a flow rate of 100 μL/min and association time of 90 seconds. Compound dissociation was monitored for at least 400 seconds during each cycle. No additional regeneration was used. DMSO calibration curve was obtained before and after compound analysis by injecting 0-4% of DMSO in assay buffer. A suitable compound with known affinity and kinetics was tested once in every experiment as a positive control to assess activity of the captured protein on the surface.
(§5) A 3-fold, 6-point serial dilution of compounds was set-up in a deep 96-well microplate (Greiner Bio; Cat #780201) with the highest concentration of 1 μM (concentration range: 0.004-1 μM). Binding kinetics was measured at 10° C. by injecting serial dilutions of compounds in increasing order onto reference as well as RAS immobilized channels at a flow rate of 100 μL/min and association time of 120 seconds. Compound dissociation was monitored for at least 3600 seconds. Two buffer blanks were also run in a single-cycle kinetics format before the compound run for double referencing. No additional regeneration was used. DMSO calibration curve was obtained before and after compound analysis by injecting 0-4% of DMSO in the assay buffer. A suitable compound with known affinity and kinetics was tested once in every experiment as a positive control to assess activity of the captured protein on the surface.
(§6) Both MCK and SCK data were processed and analyzed using Biacore Insight evaluation software (Cytiva, Marlborough, MA)). […] The adequateness of the fit was judged by c^2 values and the randomness of residue distribution.
(§7) A geometric mean of binding constant KD was provided when an Example was tested more than once (n is testing replicate number).
The target in test [2] is T1, wild-type (WT) KRAS (aa1-185) (Homo sapiens, UniProt P01116).
T1 construct: wild-type (WT) KRAS (aa1-185)
T1 sequence (P01116 1-185 isoform P01116-2): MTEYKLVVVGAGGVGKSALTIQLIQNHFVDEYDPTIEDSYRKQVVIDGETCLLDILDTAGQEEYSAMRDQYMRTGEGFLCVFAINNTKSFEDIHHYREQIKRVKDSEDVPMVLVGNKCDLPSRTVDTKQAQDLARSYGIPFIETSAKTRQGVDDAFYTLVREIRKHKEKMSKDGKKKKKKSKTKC
Briefly: KRAS Surface Plasma Resonance (SPR) binding assay, WT KRAS. The conditions noted are these: SPR at 10 °C, geometric mean when tested more than once. An excerpt:
No additional regeneration was used.
Compound dissociation was monitored for at least 3600 seconds. […] No additional regeneration was used.

The target of test [3] is G12V KRAS (aa2-184) (Homo sapiens, UniProt P01116, G12V). Briefly: biochemical.
Sequence of G12V KRAS (aa2-184) (P01116 2-184 isoform P01116-2 G12V): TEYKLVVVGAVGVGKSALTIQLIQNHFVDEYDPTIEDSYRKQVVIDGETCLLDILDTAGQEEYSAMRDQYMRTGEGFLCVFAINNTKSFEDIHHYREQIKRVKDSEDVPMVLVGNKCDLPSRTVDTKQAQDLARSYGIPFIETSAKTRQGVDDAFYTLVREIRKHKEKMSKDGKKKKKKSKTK
Description: as §1, §2, §3, §4, §5, §6, §7
Test [4] concerns the target G12C KRAS (aa2-184) (Homo sapiens, UniProt P01116, G12C). The test can be described thus: biochemical.
Description: as §1, §2, §3, §4, §5, §6, §7

Sequence of G12C KRAS (aa2-184) (P01116 2-184 isoform P01116-2 G12C): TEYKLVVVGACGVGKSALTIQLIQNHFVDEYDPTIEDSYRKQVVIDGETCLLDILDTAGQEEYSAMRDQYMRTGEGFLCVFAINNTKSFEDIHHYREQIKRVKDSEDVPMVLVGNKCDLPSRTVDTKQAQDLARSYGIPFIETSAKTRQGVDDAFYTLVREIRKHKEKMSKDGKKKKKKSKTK
Sequence of G12D KRAS (aa1-185) (P01116 1-185 isoform P01116-2 G12D): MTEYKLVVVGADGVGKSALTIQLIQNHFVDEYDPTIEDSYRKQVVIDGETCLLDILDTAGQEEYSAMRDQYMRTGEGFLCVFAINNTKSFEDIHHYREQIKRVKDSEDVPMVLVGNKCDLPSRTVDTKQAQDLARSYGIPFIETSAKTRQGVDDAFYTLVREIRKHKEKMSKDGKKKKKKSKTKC

A word on the Kd: it is a measure of binding affinity in units of concentration. For `C#Cc1cccc2cc(O)cc(-c3ncc4c(N5C[C@H](CC#N)[C@@H](F)C5)nc(OC[C@@]56CCCN5C[C@H](F)C6)nc4c3F)c12` (mixture of isomers) [Example 7, {(3SR,4RS)-1-[7-(8-ethynyl-3-hydroxynaphthalen-1-yl)-8-fluoro-2-{[(2R,7aS)-2-fluorotetrahydro-1H-pyrrolizin-7a(5H)-yl]methoxy}pyrido[4,3-d]pyrimidin-4-yl]-4-fluoropyrrolidin-3-yl}acetonitrile], the Kd in test [1] was 11.4 nM; in test [2], 2.55 nM; in test [3] it was 6.71 nM; in test [4], 8.33 nM.

With `C#Cc1cccc2cc(O)cc(-c3ncc4c(N5C[C@H]6C[C@@H](O)[C@@H](C5)O6)nc(OC[C@@]56CCCN5C[C@H](F)C6)nc4c3F)c12` (relative stereo) [Example 18, (1R*,5R*,6R*)-3-[7-(8-ethynyl-3-hydroxynaphthalen-1-yl)-8-fluoro-2-{[(2R,7aS)-2-fluorotetrahydro-1H-pyrrolizin-7a(5H)-yl]methoxy}pyrido[4,3-d]pyrimidin-4-yl]-8-oxa-3-azabicyclo[3.2.1]octan-6-ol], the dissociation constant (Kd) in test [1] was 0.214 nM; in test [2], 0.092 nM; in test [3], 0.13 nM; in test [4], 0.759 nM.

Consider `Oc1cc(-c2ncc3c(N4C[C@H]5C[C@@H](O)[C@H]5C4)nc(OC[C@@]45CCCN4C[C@H](F)C5)nc3c2F)c2c(Cl)cccc2c1` (relative stereo) [Example 21, (1S*,5R*,6R*)-3-[7-(8-chloro-3-hydroxynaphthalen-1-yl)-8-fluoro-2-{[(2R,7aS)-2-fluorotetrahydro-1H-pyrrolizin-7a(5H)-yl]methoxy}pyrido[4,3-d]pyrimidin-4-yl]-3-azabicyclo[3.2.0]heptan-6-ol], for which the Kd in test [1] is 1.01 nM; in test [2], 1.76 nM; in test [3], 1.46 nM; in test [4] it was 1.9 nM.

With `Oc1cc(-c2ncc3c(N4C[C@@H]5C[C@H](O)[C@@H]5C4)nc(OC[C@@]45CCCN4C[C@H](F)C5)nc3c2F)c2c(Cl)cccc2c1` (relative stereo) [Example 22, (1R*,5S*,6S*)-3-[7-(8-chloro-3-hydroxynaphthalen-1-yl)-8-fluoro-2-{[(2R,7aS)-2-fluorotetrahydro-1H-pyrrolizin-7a(5H)-yl]methoxy}pyrido[4,3-d]pyrimidin-4-yl]-3-azabicyclo[3.2.0]heptan-6-ol], the Kd in test [1] was found to be 36.9 nM; in test [2] it was 11.9 nM; in test [3] it was 46.7 nM; in test [4], 42.4 nM.

Regarding `C#Cc1cccc2cc(O)cc(-c3ncc4c(N5C[C@@H]6C[C@H](O)[C@H](C5)O6)nc(OC[C@@]56CCCN5C[C@H](F)C6)nc4c3F)c12` (single isomer, unassigned) [Example 19, (1S*,5S*,6S*)-3-[7-(8-ethynyl-3-hydroxynaphthalen-1-yl)-8-fluoro-2-{[(2R,7aS)-2-fluorotetrahydro-1H-pyrrolizin-7a(5H)-yl]methoxy}pyrido[4,3-d]pyrimidin-4-yl]-8-oxa-3-azabicyclo[3.2.1]octan-6-ol], the equilibrium dissociation constant (Kd) came out at 78.3 nM in test [1], 27.9 nM in test [2], 91.7 nM in test [3] and 84.7 nM in test [4].

For the molecule `C#Cc1cccc2cc(O)cc(-c3ncc4c(N5CCC[C@@H](CC#N)C5)nc(OC[C@@]56CCCN5C[C@H](F)C6)nc4c3F)c12` [Example 1, {(3S)-1-[7-(8-ethynyl-3-hydroxynaphthalen-1-yl)-8-fluoro-2-{[(2R,7aS)-2-fluorotetrahydro-1H-pyrrolizin-7a(5H)-yl]methoxy}pyrido[4,3-d]pyrimidin-4-yl]piperidin-3-yl}acetonitrile], the Kd in test [1] was determined as 0.268 nM; in test [2], 0.273 nM; in test [3] it was 0.454 nM; in test [4], 1.23 nM.

In the case of `C#Cc1cccc2cc(O)cc(-c3ncc4c(N5C[C@H]6CC[C@@H](C5)O6)nc(OC[C@@]56CCCN5C[C@H](F)C6)nc4c3F)c12` [Example 2, 5-ethynyl-4-(8-fluoro-2-{[(2R,7aS)-2-fluorotetrahydro-1H-pyrrolizin-7a(5H)-yl]methoxy}-4-[(1R,5S)-8-oxa-3-azabicyclo[3.2.1]octan-3-yl]pyrido[4,3-d]pyrimidin-7-yl)naphthalen-2-ol], the equilibrium dissociation constant (Kd) came out at 1.89 nM in test [1], 0.422 nM in test [2], 0.515 nM in test [3] and 1.64 nM in test [4].

Regarding `C#Cc1cccc2cc(O)cc(-c3ncc4c(N5CCN(C(C)=O)[C@@H](CC#N)C5)nc(OC[C@@]56CCCN5C[C@H](F)C6)nc4c3F)c12` [Example 4, {(2S)-1-acetyl-4-[7-(8-ethynyl-3-hydroxynaphthalen-1-yl)-8-fluoro-2-{[(2R,7aS)-2-fluorotetrahydro-1H-pyrrolizin-7a(5H)-yl]methoxy}pyrido[4,3-d]pyrimidin-4-yl]piperazin-2-yl}acetonitrile], the Kd in test [1] stood at 14.1 nM; in test [2] it was 0.308 nM; in test [3], 3.69 nM; in test [4], 1.94 nM.

Take `C#Cc1cccc2cc(O)cc(-c3ncc4c(N5CC[C@@](C)(CC#N)C5)nc(OC[C@@]56CCCN5C[C@H](F)C6)nc4c3F)c12` [Example 5, {(3S)-1-[7-(8-ethynyl-3-hydroxynaphthalen-1-yl)-8-fluoro-2-{[(2R,7aS)-2-fluorotetrahydro-1H-pyrrolizin-7a(5H)-yl]methoxy}pyrido[4,3-d]pyrimidin-4-yl]-3-methylpyrrolidin-3-yl}acetonitrile]: the Kd amounted to 10.5 nM in test [1], 2.89 nM in test [2], 22.1 nM in test [3] and 11.4 nM in test [4].

With `C#Cc1cccc2cc(O)cc(-c3ncc4c(N5CC[C@@H](CC#N)C5)nc(OC[C@@]56CCCN5C[C@H](F)C6)nc4c3F)c12` [Example 6, {(3S)-1-[7-(8-ethynyl-3-hydroxynaphthalen-1-yl)-8-fluoro-2-{[(2R,7aS)-2-fluorotetrahydro-1H-pyrrolizin-7a(5H)-yl]methoxy}pyrido[4,3-d]pyrimidin-4-yl]pyrrolidin-3-yl}acetonitrile], the Kd turned out to be 2.43 nM in test [1], 1.89 nM in test [2], 1.35 nM in test [3] and 2.67 nM in test [4].

For `C#Cc1cccc2cc(O)cc(-c3ncc4c(N5CCC[C@@](C)(CC#N)C5)nc(OC[C@@]56CCCN5C[C@H](F)C6)nc4c3F)c12` [Example 8, {(3S)-1-[7-(8-ethynyl-3-hydroxynaphthalen-1-yl)-8-fluoro-2-{[(2R,7aS)-2-fluorotetrahydro-1H-pyrrolizin-7a(5H)-yl]methoxy}pyrido[4,3-d]pyrimidin-4-yl]-3-methylpiperidin-3-yl}acetonitrile], the equilibrium dissociation constant (Kd) in test [1] was determined as 1.69 nM; in test [2], 0.398 nM; in test [3] it was 11.5 nM; in test [4], 1.54 nM.

Consider `C#Cc1cccc2cc(O)cc(-c3ncc4c(N5C[C@@H]6C[C@H](C5)[C@H](O)C6)nc(OC[C@@]56CCCN5C[C@H](F)C6)nc4c3F)c12` [Example 9, (1R,5R,6R)-3-[7-(8-ethynyl-3-hydroxynaphthalen-1-yl)-8-fluoro-2-{[(2R,7aS)-2-fluorotetrahydro-1H-pyrrolizin-7a(5H)-yl]methoxy}pyrido[4,3-d]pyrimidin-4-yl]-3-azabicyclo[3.2.1]octan-6-ol], for which the Kd in test [1] is 0.099 nM; in test [2], 0.019 nM; in test [3], 0.308 nM; in test [4], 0.447 nM.

`N#C[C@@H]1CCCN1c1nc(OC[C@@]23CCCN2C[C@H](F)C3)nc2c(F)c(-c3cc(O)cc4ccc(F)c(F)c34)ncc12` [Example 11, (2S)-1-[7-(7,8-difluoro-3-hydroxynaphthalen-1-yl)-8-fluoro-2-{[(2R,7aS)-2-fluorotetrahydro-1H-pyrrolizin-7a(5H)-yl]methoxy}pyrido[4,3-d]pyrimidin-4-yl]pyrrolidine-2-carbonitrile]: the Kd stood at 23.6 nM in test [1], 19.7 nM in test [2], 98.7 nM in test [3] and 38.9 nM in test [4].

With `C#Cc1c(F)ccc2cc(O)cc(-c3ncc4c(N5CCC[C@@H](CC#N)C5)nc(OC[C@@]56CCCN5C[C@H](F)C6)nc4c3F)c12` [Example 15, {(3S)-1-[7-(8-ethynyl-7-fluoro-3-hydroxynaphthalen-1-yl)-8-fluoro-2-{[(2R,7aS)-2-fluorotetrahydro-1H-pyrrolizin-7a(5H)-yl]methoxy}pyrido[4,3-d]pyrimidin-4-yl]piperidin-3-yl}acetonitrile], the Kd in test [1] came out at 0.128 nM; in test [2], 0.118 nM; in test [3] it was 0.274 nM; in test [4], 0.749 nM.

On to `Oc1cc(-c2ncc3c(N4C[C@@H]5C[C@H](C4)[C@H](O)C5)nc(OC[C@@]45CCCN4C[C@H](F)C5)nc3c2F)c2ccccc2c1` [Example 17, (1R,5R,6R)-3-[8-fluoro-2-{[(2R,7aS)-2-fluorotetrahydro-1H-pyrrolizin-7a(5H)-yl]methoxy}-7-(3-hydroxynaphthalen-1-yl)pyrido[4,3-d]pyrimidin-4-yl]-3-azabicyclo[3.2.1]octan-6-ol], for which the dissociation constant Kd is 0.553 nM in test [1], 0.362 nM in test [2], 0.269 nM in test [3] and 0.963 nM in test [4].

Consider `C#Cc1c(F)ccc2cc(O)cc(-c3nc4c5c(nc(OC[C@@]67CCCN6C[C@H](F)C7)nc5c3F)N(C)CCO4)c12` [Example 24, 5-ethynyl-6-fluoro-4-(4-fluoro-2-{[(2R,7aS)-2-fluorotetrahydro-1H-pyrrolizin-7a(5H)-yl]methoxy}-10-methyl-9,10-dihydro-8H-7-oxa-1,3,6,10-tetraazacyclohepta[1,2,3-de]naphthalen-5-yl)naphthalen-2-ol], for which the dissociation constant (Kd) in test [1] was 0.081 nM; in test [2], 0.145 nM; in test [3], 0.052 nM; in test [4] it was 0.079 nM.
